Reference: US6821941B2, “Tablet of compacted particulated cleaning composition” (ISP Investments Inc., priority 2002, dated 2004)

Key:
[1] = Disintegration rate of dishwashing detergent tablet vs. additive ingredient; format: physicochemical; details: additive in standard dishwashing detergent formulation; based on a tablet of 20 g; FIGURE
Text: The FIGURE is a bar graph of Disintegration Rate (g/min) vs. Additive Ingredient present in a standard dishwashing detergent formulation.
The dishwashing disintegrant tablets of the invention herein have a disintegration rate of at least 40 g/min (based on a tablet of 20 g).

[2] = grams of solid to form a saturated solution in 100 g of water at 20° C.; cited from earlier work

For `NC(N)=O` [Urea], the Disintegration rate [1] is given as “minimal” and the “Water Solubility (g/100 g)” value [2] is given as over 100 g/100 g.
